Assay type in all cases: biochemical
The target of one experiment is T1, MMP-14 (Homo sapiens, UniProt P50281).
T1 construct: purchased R&D Systems 918-MP
Briefly: In vitro MMP-14 inhibition test. An excerpt: (§1) The MMP-mediated amidolytic cleavage of a suitable peptide substrate leads to an increase in fluorescent light here too. The signal intensity of the fluorescent light is directly proportional to the enzyme activity. The active concentration of a test compound at which half the enzyme is inhibited (50% signal intensity of the fluorescent light) is reported as the IC50 value.
(§2) Recombinant MMP-14 (from R&D Systems, 918-MP) is enzymatically activated in accordance with the manufacturer's instructions using recombinant furin (from R&D Systems, 1503-SE). 1 μl of the test compound to be analysed (as a solution in DMSO, suitable concentrations e.g. 1 nM to 30 μM) is pipetted into 24 μl of activated enzyme (final concentration e.g. 0.5 nM) in reaction buffer (50 mM Tris/HCl pH 7.5, 10 mM CaCl2, 150 mM NaCl, 0.05% Brij®-35) in a white 384-hole microtiter plate (MTP). The enzymatic reaction is started by adding the intramolecularly quenched Mca-Lys-Pro-Leu-Gly-Leu-Dpa(Dnp)-Ala-Arg-NH2 substrate (final concentration, for example, 5 μM; R&D Systems, ES-010), so as to result in a total test volume of 50 The course of the MMP-14 reaction is measured by measuring the fluorescence intensity (excitation 320 nm, emission 410 nm) over a suitable period of time (for example over 120 min at a temperature of 32° C.).

A further experiment has as its target T2, MMP-10 (Homo sapiens, UniProt P09238).
T2 construct: purchased R&D Systems 910-MP
Briefly: In vitro MMP-10 inhibition test.
Source text: as §1
Recombinant MMP-10 (from R&D Systems, 910-MP) is chemically activated in accordance with the manufacturer's instructions using APMA. 1 μl of the test compound to be analysed (as a solution in DMSO, suitable concentrations, for example, 1 nM to 30 μM) is pipetted into 24 μl of activated enzyme (final concentration, for example, 2 nM) in reaction buffer (50 mM Tris/HCl pH 7.5, 10 mM CaCl2, 150 mM NaCl, 0.05% Brij®-35) in a white 384-hole microtiter plate (MTP). The enzymatic reaction is started by adding the intramolecularly quenched Mca-Arg-Pro-Lys-Pro-Val-Glu-Nval-Trp-Arg-Lys(Dnp)-NH2 substrate (final concentration, for example, 10 μM; R&D Systems, ES-002), so as to result in a total test volume of 50 μl. The course of the MMP-10 reaction is measured by measuring the fluorescence intensity (excitation 320 nm, emission 410 nm) over a suitable period of time (for example over 120 min at a temperature of 32° C.).

The target in a further experiment is T3, MMP-13 (Homo sapiens, UniProt P45452).
T3 construct: purchased R&D Systems 511-MP
Briefly: In vitro MMP-13 inhibition test.
Source text: as §1
Recombinant MMP-13 (from R&D Systems, 511-MP) is chemically activated in accordance with the manufacturer's instructions using APMA. 1 μl of the test compound to be analysed (as a solution in DMSO, suitable concentrations, for example, 1 nM to 30 μM) is pipetted into 24 μl of activated enzyme (final concentration, for example, 0.1 nM) in reaction buffer (50 mM Tris/HCl pH 7.5, 10 mM CaCl2, 150 mM NaCl, 0.05% Brij®-35) in a white 384-hole microtiter plate (MTP). The enzymatic reaction is started by adding the intramolecularly quenched Mca-Pro-Leu-Gly-Leu-Dpa(Dnp)-Ala-Arg-NH2 substrate (final concentration, for example, 10 μM; R&D Systems, ES-001), so as to result in a total test volume of 50 The course of the MMP-13 reaction is measured by measuring the fluorescence intensity (excitation 320 nm, emission 410 nm) over a suitable period of time (for example over 120 min at a temperature of 32° C.).

In experiment [1] the target is T4, human macrophage elastase (HME/hMMP-12) (Homo sapiens, UniProt P39900).
T4 construct: 0.5 nM HME; purchased R&D Systems 917-MP
T4 sequence (P39900 106-470): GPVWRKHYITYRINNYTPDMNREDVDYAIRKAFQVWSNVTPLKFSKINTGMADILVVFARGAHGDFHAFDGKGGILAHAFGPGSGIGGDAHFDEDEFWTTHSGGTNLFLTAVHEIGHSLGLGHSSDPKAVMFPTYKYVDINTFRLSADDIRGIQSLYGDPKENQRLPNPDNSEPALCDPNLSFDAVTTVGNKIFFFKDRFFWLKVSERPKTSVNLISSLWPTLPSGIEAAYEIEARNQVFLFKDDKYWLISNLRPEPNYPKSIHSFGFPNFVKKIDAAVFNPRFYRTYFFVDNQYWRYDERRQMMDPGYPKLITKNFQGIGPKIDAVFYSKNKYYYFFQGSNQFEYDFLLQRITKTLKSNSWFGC
Put plainly: In vitro HME inhibition test (standard or high-sensitivity). To be noted: in some cases mean values. Put shortly: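 Fluorogenic assay: 0.5 nM autoactivated HME with 5 µM Mca-Pro-Leu-Gly-Leu-Glu-Glu-Ala-Dap(Dnp)-NH2 in HEPES pH 7.4 buffer (NaCl, CaCl2, ZnCl2, EDTA, Brij), 2 h at 37 °C; ex 323/em 393 nm. IC50 from fluorescence versus concentration. High-sensitivity format: ~0.05 nM enzyme, ~16 h incubation.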

The target in a further experiment is T5, MMP-16 (Homo sapiens, UniProt P51512).
T5 construct: purchased R&D Systems 1785-MP
T5 sequence (P51512 120-564 limits assumed): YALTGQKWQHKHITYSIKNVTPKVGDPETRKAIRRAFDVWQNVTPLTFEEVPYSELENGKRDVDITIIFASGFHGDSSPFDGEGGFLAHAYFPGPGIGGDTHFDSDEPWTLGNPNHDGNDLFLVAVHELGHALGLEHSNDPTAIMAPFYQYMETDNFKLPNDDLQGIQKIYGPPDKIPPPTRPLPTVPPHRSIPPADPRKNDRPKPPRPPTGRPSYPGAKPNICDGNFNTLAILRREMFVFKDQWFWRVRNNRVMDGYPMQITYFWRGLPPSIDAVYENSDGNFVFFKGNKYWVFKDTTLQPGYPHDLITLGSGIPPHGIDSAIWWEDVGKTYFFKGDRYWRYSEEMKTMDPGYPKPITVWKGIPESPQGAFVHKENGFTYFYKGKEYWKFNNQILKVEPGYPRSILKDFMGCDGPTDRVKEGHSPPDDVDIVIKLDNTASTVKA
Briefly: In vitro MMP-16 inhibition test.
Source text: as §1
as §2, with “MMP-16” for “MMP-14”, “1785-MP)” for “918-MP)”, “1” for “0.5”

T2 sequence (P09238 99-476): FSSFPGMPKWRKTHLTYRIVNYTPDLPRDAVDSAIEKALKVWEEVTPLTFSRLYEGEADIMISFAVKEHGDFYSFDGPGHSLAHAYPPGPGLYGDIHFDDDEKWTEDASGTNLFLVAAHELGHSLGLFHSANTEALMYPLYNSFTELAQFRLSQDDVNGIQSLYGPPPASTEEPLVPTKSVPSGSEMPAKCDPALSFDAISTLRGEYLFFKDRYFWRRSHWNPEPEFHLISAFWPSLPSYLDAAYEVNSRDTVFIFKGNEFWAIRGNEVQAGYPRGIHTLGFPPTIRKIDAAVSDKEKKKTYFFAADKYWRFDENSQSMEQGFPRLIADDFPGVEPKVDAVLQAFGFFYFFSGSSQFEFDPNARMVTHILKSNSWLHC

The IC50 is the concentration that gives 50% inhibition. Low readings indicate higher potency, high ones lower potency. Turning to `CCCCCCOc1ccc(C(=O)[C@@H]2CC[C@H](Cn3nnc4ccc(C(F)(F)F)cc4c3=O)[C@H]2C(=O)O)cc1` (single isomer, unassigned) [Example 58, (+)-(1RS,2RS,5SR)-2-[4-(Hexyloxy)benzoyl]-5-{[4-oxo-6-(trifluoromethyl)-1,2,3-benzotriazin-3(4H)-yl]methyl}cyclopentanecarboxylic acid], the IC50 against MMP-14 came to 1300 nM; against MMP-10, 29 nM; on MMP-13, 440 nM; in experiment [1], 0.027 nM; against MMP-16, 2300 nM.

Regarding `O=C(O)[C@H]1[C@H](Cn2nnc3ccccc3c2=O)CC[C@@H]1C(=O)c1ccc(OCC2CCCC2)cc1` (racemic) [Example 4, (+/−)-(1RS,2RS,5SR)-2-[4-(Cyclopentylmethoxy)benzoyl]-5-[(4-oxo-1,2,3-benzotriazin-3(4H)-yl)methyl]cyclopentanecarboxylic acid], the IC50 was 33 nM against MMP-14; 110 nM on MMP-10; 58 nM against MMP-13; 0.049 nM in experiment [1]; 170 nM against MMP-16.

With `O=C(O)[C@@H]1[C@@H](Cn2nnc3ccc(C(F)(F)F)cc3c2=O)CC[C@H]1C(=O)c1ccc(OCCC2CCCCC2)cc1` (single isomer, unassigned) [Example 52, (+)-(1RS,2RS,5SR)-2-[4-(2-Cyclohexylethoxy)benzoyl]-5-{[4-oxo-6-(trifluoromethyl)-1,2,3-benzotriazin-3(4H)-yl]methyl}cyclopentanecarboxylic acid], the 50% inhibitory concentration (IC50) against MMP-14 stood at 3600 nM; on MMP-10, 52 nM; against MMP-13, 1600 nM; in experiment [1] it was 0.017 nM; against MMP-16, 4600 nM.

On to `O=C(O)[C@H]1[C@H](Cn2nnc3ccccc3c2=O)CC[C@@H]1C(=O)c1ccc(OCCC2CCCCC2)cc1` (racemic) [Example 5, (+/−)-(1RS,2RS,5SR)-2-[4-(2-Cyclohexylethoxy)benzoyl]-5-[(4-oxo-1,2,3-benzotriazin-3(4H)-yl)methyl]cyclopentanecarboxylic acid], for which the half-maximal inhibitory concentration (IC50) at MMP-14 was determined as 620 nM; against MMP-10 it was 93 nM; against MMP-13 it was 350 nM; in experiment [1] it was 0.07 nM; against MMP-16, 2500 nM.

As to `Cc1ccc2nnn(C[C@@H]3CC[C@H](C(=O)c4ccc(OCc5cccc(C(F)(F)F)c5)cc4)[C@H]3C(=O)O)c(=O)c2c1` (racemic) [Example 100, (+/−)-(1RS,2SR,5RS)-2-[(6-Methyl-4-oxo-1,2,3-benzotriazin-3(4H)-yl)methyl]-5-(4-{[3-(trifluoromethyl)benzyl]oxy}benzoyl)cyclopentanecarboxylic acid], the IC50 is 720 nM against MMP-14; 160 nM against MMP-10; 360 nM on MMP-13; 0.08 nM in experiment [1]; 970 nM against MMP-16.

On to `Cc1cccc(COc2ccc(C(=O)[C@@H]3CC[C@H](Cn4nnc5ccc(C)cc5c4=O)[C@H]3C(=O)O)cc2)c1` (single isomer, unassigned) [Example 98, (+)-(1RS,2RS,5SR)-2-{4-[(3-Methylbenzyl)oxy]benzoyl}-5-[(6-methyl-4-oxo-1,2,3-benzotriazin-3(4H)-yl)methyl]cyclopentanecarboxylic acid], for which the IC50 against MMP-14 is 210 nM; on MMP-10 it was 55 nM; against MMP-13, 410 nM; in experiment [1] it was 0.1 nM; against MMP-16, 670 nM.

For `O=C(O)[C@@H]1[C@@H](Cn2nnc3ccc(C(F)(F)F)cc3c2=O)CC[C@H]1C(=O)c1ccc(OCc2cccc(C(F)(F)F)c2)cc1` (single isomer, unassigned) [Example 19, (+)-(1RS,2SR,5RS)-2-{[4-Oxo-6-(trifluoromethyl)-1,2,3-benzotriazin-3(4H)-yl]methyl}-5-(4-{[3-(trifluoromethyl)benzyl]oxy}benzoyl)cyclopentanecarboxylic acid], the IC50 against MMP-14 was determined as 3000 nM; on MMP-10 it was 270 nM; at MMP-13 it was 2600 nM; in experiment [1] it was 0.027 nM; on MMP-16 it was 5400 nM.

For the compound `Cc1ccc2nnn(C[C@H]3CC[C@@H](C(=O)c4ccc(OCC5CCCCC5)cc4)[C@@H]3C(=O)O)c(=O)c2c1` (single isomer, unassigned) [Example 117, (+)-(1RS,2RS,5SR)-2-[4-(Cyclohexylmethoxy)benzoyl]-5-[(6-methyl-4-oxo-1,2,3-benzotriazin-3(4H)-yl)methyl]cyclopentanecarboxylic acid], the IC50 came out at 88 nM at MMP-14; 26 nM against MMP-10; 74 nM against MMP-13; 0.014 nM in experiment [1]; 260 nM against MMP-16.

Consider “(+)-(1RS,2RS,5SR)-2-{4-[(3,4-Dichlorobenzyl)oxy]benzoyl}-5-{[4-oxo-6-(trifluoromethyl)-1,2,3-benzotriazin-3(4H)-yl]methyl}cyclopentanecarboxylic acid [Example 28]”, for which the IC50 stood at 1900 nM at MMP-14; 130 nM against MMP-10; 620 nM at MMP-13; 0.036 nM in experiment [1]; 2200 nM against MMP-16.

As for `Cc1ccc2nnn(C[C@H]3CC[C@@H](C(=O)c4ccc(OCc5cccc(Cl)c5)cc4)[C@@H]3C(=O)O)c(=O)c2c1` (single isomer, unassigned) [Example 104, (+)-(1RS,2RS,5SR)-2-{4-[(3-Chlorobenzyl)oxy]benzoyl}-5-[(6-methyl-4-oxo-1,2,3-benzotriazin-3(4H)-yl)methyl]cyclopentanecarboxylic acid], the IC50 came to 230 nM against MMP-14; 50 nM on MMP-10; 200 nM against MMP-13; 0.12 nM in experiment [1]; 540 nM at MMP-16.

Consider `O=C(O)[C@H]1[C@H](Cn2nnc3ccc(C(F)(F)F)cc3c2=O)CC[C@@H]1C(=O)c1ccc(SCc2ccc(Cl)c(Cl)c2)cc1` (racemic) [Example 79, (+/−)-(1RS,2RS,5SR)-2-{4-[(3,4-Dichlorobenzyl)sulphanyl]benzoyl}-5-{[4-oxo-6-(trifluoromethyl)-1,2,3-benzotriazin-3(4H)-yl]methyl}cyclopentanecarboxylic acid], for which the IC50 against MMP-14 was 8700 nM; against MMP-10, 310 nM; on MMP-13, 2700 nM; in experiment [1], 0.25 nM; on MMP-16 it was more than 40000 nM.

These data come from US20170022171A1, “2,5-DISUBSTITUTED CYCLOPENTANECARBOXYLIC ACIDS AND THEIR USE” (Bayer Pharma Aktiengesellschaft, priority 2014, published 2017).
